From paper PMC6198970, “Safety, efficacy, and dose response of the maturation inhibitor GSK3532795 (formerly known as BMS-955176) plus tenofovir/emtricitabine once daily in treatment-naive HIV-1-infected adults: Week 24 primary analysis from a randomized Phase IIb trial” (PLoS ONE, 2018)

Experiments:
P-gp = tested on: P-gp; set-up: method as in protocol Section 1.4.1.2; conditions: ref protocol Section 1.4.1.2; cited from earlier work
CYP1A2, CYP2B6, CYP3A4 = tested on: CYP1A2, CYP2B6, CYP3A4; set-up: method as in protocol Section 1.4.1.2; conditions: ref protocol Section 1.4.1.2; cited from earlier work
OCT2 = tested on: OCT2; set-up: method as in protocol Section 1.4.1.2; conditions: preliminary data; ref protocol Section 1.4.1.2; cited from earlier work
CD4+ T-cell count = test: Change from baseline in CD4+ T-cell count; format: in vivo, HIV-1-infected adults; conditions: Week 24
From the text: The primary endpoint was determination of the proportion of participants with plasma HIV-1 RNA <40 copies/mL at Week 24 after treatment with GSK3532795 or efavirenz (EFV). Secondary endpoints included mean changes from baseline in CD4+ T-cell count and mean changes in the percentage of CD4+ T-cell count over time. Secondary safety endpoints included frequency of adverse events (AEs), serious AEs (SAEs), and AEs leading to discontinuation through Week 24. Further secondary endpoints included emergence of drug resistance. Exploratory endpoints included assessment of the impact of Gag polymorphisms on the efficacy of GSK3532795. […] In addition, though Gag A364 is essentially invariant across genotypes, it was included in the primary endpoint analysis since emergent resistance to GSK3532795 (both in vitro and in Phase IIa studies) mapped, in part, to the A364V change. Thus, our analysis at the Week 24 primary endpoint was limited to these four positions. Pharmacokinetic (PK) analyses were performed to evaluate treatment exposure and assess the dose proportionality of GSK3532795 when co-administered with tenofovir disoproxil fumarate (TDF)/emtricitabine (FTC).

[1] = set-up: method as in AI468001 and AI468002; conditions: same doses and formulation; ref AI468001 and AI468002; listed as BMS-955176; cited from earlier work
[2] = BMS-955176 40 mg SDD suspension and TDF at steady state; ref Study AI468005; cited from earlier work
HIV-1 = tested on: HIV-1; set-up: method as in protocol Section 1.4.1.2; conditions: with representative drugs from NRTI, NNRTI, PI, and INI classes; ref protocol Section 1.4.1.2; cited from earlier work

C=C(C)[C@@H]1CC[C@]2(NCCN3CCS(=O)(=O)CC3)CC[C@]3(C)[C@H](CC[C@@H]4[C@@]5(C)CC=C(c6ccc(C(=O)O)cc6)C(C)(C)[C@@H]5CC[C@]43C)[C@@H]12 [GSK3532795]
P-gp inhibition (P-gp): No P-gp inhibition
Induction of CYP1A2, CYP2B6, or CYP3A4 (CYP1A2, CYP2B6, CYP3A4): not an inducer
Inhibition of OCT2 (OCT2): does not inhibit OCT2
Mean change in CD4+ T-cell count (SD) (CD4+ T-cell count; 60 mg): 94.3 (SD 175.00) cells/μL
Mean change in CD4+ T-cell count (SD) (CD4+ T-cell count; 120 mg): 79.7 (SD 199.46) cells/μL
Mean change in CD4+ T-cell count (SD) (CD4+ T-cell count; 180 mg): 92.5 (SD 144.04) cells/μL
Exposures lower in HIV-1-infected subjects compared to healthy subjects [1]: 35%
Impact of coadministration on exposures [2]: neither BMS-955176 nor TDF exposures were meaningfully impacted
Effect of 2-drug combinations (HIV-1): additive to synergistic effects
